Results published in publication PMC11748363, “Antimicrobial and Antiproliferative Properties of 2‐Phenyl‐N‐(Pyridin‐2‐yl)acetamides” (Chemical Biology & Drug Design, 2025).
In brackets after ≈: the same amount, converted by molar mass. Read-outs that look alike come from different tables or passages of the source.

Key:
[1] = system: Klebsiella pneumoniae CCM 4415, ATCC 10031; experiment: Antibacterial microdilution broth MIC, KP
[2] = system: Enterococcus faecalis CCM 4224, ATCC 29212; experiment: Antibacterial microdilution broth MIC, EF; format: cell-based
[3] = system: Candida tropicalis CCM 8264, ATCC 750; experiment: Antifungal microdilution broth MIC, CT
[4] = system: Trichophyton interdigitale CCM 8377, ATCC 9533; experiment: Antifungal microdilution broth MIC, TI; conditions: Trichophyton interdigitale
[5] = system: Mycobacterium tuberculosis H37Ra; experiment: Antimycobacterial microdilution broth MIC (resazurin), Mtb H37Ra; format: cell-based; conditions: for MIC: Mycobacterium tuberculosis, H37RA
[6] = system: Pseudomonas aeruginosa CCM 3955, ATCC 27853; experiment: Antibacterial microdilution broth MIC, PA; format: cell-based
[7] = system: Candida parapsilosis CCM 8260, ATCC 22019; experiment: Antifungal microdilution broth MIC, CP; conditions: Lodderomyces parapsilosis
[8] = system: Mycolicibacterium aurum DSM 43999; experiment: Antimycobacterial microdilution broth MIC (resazurin), M. aurum; format: cell-based; conditions: DSM43999, read-out: MIC M. aurum
HepG2 cell line = experiment: Cytotoxicity CellTiter 96, HepG2; format: cell-based, human; conditions: 24 h incubation, ^c compound precipitated in the testing medium, ^d over the limit of tested concentrations
[9] = system: Mycolicibacterium smegmatis DSM 43465; experiment: Antimycobacterial microdilution broth MIC (resazurin), M. smegmatis; format: cell-based; conditions: DSM43465, read-out: MIC M. smegmatis
[10] = system: Staphylococcus epidermidis CCM 4418, ATCC 12228; experiment: Antibacterial microdilution broth MIC, SE; format: cell-based
[11] = system: Aspergillus fumigatus ATCC 204305; experiment: Antifungal microdilution broth MIC, AF
[12] = system: Staphylococcus aureus CCM 4223, ATCC 29213; experiment: Antibacterial microdilution broth MIC, SA; format: cell-based; conditions: Staphylococcus aureus
[13] = system: Lichtheimia corymbifera CCM 8077; experiment: Antifungal microdilution broth MIC, LC
[14] = system: Escherichia coli CCM 3954, ATCC 25922; experiment: Antibacterial microdilution broth MIC, EC; format: cell-based
[15] = system: Acinetobacter baumannii DSM 30007, ATCC 19606; experiment: Antibacterial microdilution broth MIC, ACI; format: cell-based
[16] = system: Candida albicans CCM 8320, ATCC 24433; experiment: Antifungal microdilution broth MIC, CA
[17] = system: Staphylococcus aureus subsp. aureus CCM 4750, ATCC 43300 (MRSA); experiment: Antibacterial microdilution broth MIC, MRSA; format: cell-based; conditions: Staphylococcus aureus
[18] = system: Aspergillus flavus CCM 8363; experiment: Antifungal microdilution broth MIC, AFla
[19] = system: Candida krusei CCM 8271, ATCC 6258; experiment: Antifungal microdilution broth MIC, CK; conditions: Pichia kudriavzevii
[20] = Calculated from MIC (μg/mL), read-out: MIC Mtb H37Ra
[21] = ATCC204305, 24 h, read-out: MIC AF 24h
[22] = ATCC204305, 48 h, read-out: MIC AF 48h
[23] = CCM8077, 24 h, read-out: MIC LC 24h
[24] = CCM8077, 48 h, read-out: MIC LC 48h
[25] = CCM8363, 24 h, read-out: MIC AFla 24h
[26] = CCM8363, 48 h, read-out: MIC AFla 48h

| Structure (SMILES) | MIC KP 24h [1] | MIC KP 48h [1] | MIC ([2]; 24 h, read-out: MIC EF 24h) | MIC ([2]; 48 h, read-out: MIC EF 48h) | MIC ([3]; 24 h, read-out: MIC CT 24h) | MIC ([3]; 48 h, read-out: MIC CT 48h) | MIC ([4]; 72 h, read-out: MIC TI 72h) | MIC ([4]; 120 h, read-out: MIC TI 120h) | MIC ([6]; 24 h, read-out: MIC PA 24h) | MIC ([6]; 48 h, read-out: MIC PA 48h) | MIC ([7]; 24 h, read-out: MIC CP 24h) | MIC ([7]; 48 h, read-out: MIC CP 48h) | MIC [8] | IC50 (HepG2 cell line; Homo sapiens, HepG2, 24 h) | MIC [9] | MIC ([10]; 24 h, read-out: MIC SE 24h) | MIC ([10]; 48 h, read-out: MIC SE 48h) | MIC [11, 21] | MIC [11, 22] | MIC ([12]; 24 h, read-out: MIC SA 24h) | other results |
| --- | --- | --- | --- | --- | --- | --- | --- | --- | --- | --- | --- | --- | --- | --- | --- | --- | --- | --- | --- | --- | --- |
| O=C(Cc1ccccc1)Nc1cccc(Cl)n1 [Compound 3] | > 500 µM | > 500 µM | > 500 µM | > 500 µM | > 500 µM | > 500 µM | 125 µM (≈ 30.8 µg/mL) | 250 µM (≈ 61.7 µg/mL) | > 500 µM | > 500 µM | 500 µM (≈ 123 µg/mL) | > 500 µM | 62.5 µg/mL (≈ 253 µM) | 433 µM | 15.6 µg/mL (≈ 63.3 µM) | > 500 µM | > 500 µM | > 500 µM | > 500 µM | 500 µM (≈ 123 µg/mL) | MIC [5, 20]: 127 µM; MIC ([5]; read-out: MIC Mtb H37Ra): 31.2 µg/mL; SI (selectivity index) ([5]; SI = HepG2 IC50 (μM)/MIC MtbH37Ra (μM), calculated for compounds with MIC ≤ 31.25 μg/mL): 3.42; MIC ([12]; 48 h, read-out: MIC SA 48h): 500 µM (≈ 123 µg/mL); MIC [13, 23]: > 500 µM; MIC [13, 24]: > 500 µM; MIC ([14]; 24 h, read-out: MIC EC 24h): > 500 µM; MIC ([14]; 48 h, read-out: MIC EC 48h): > 500 µM; MIC ([15]; 24 h, read-out: MIC ACI 24h): > 500 µM; MIC ([15]; 48 h, read-out: MIC ACI 48h): > 500 µM; MIC ([16]; 24 h, read-out: MIC CA 24h): > 500 µM; MIC ([16]; 48 h, read-out: MIC CA 48h): > 500 µM; MIC ([17]; 24 h, read-out: MIC MRSA 24h): > 500 µM; MIC ([17]; 48 h, read-out: MIC MRSA 48h): > 500 µM; MIC [18, 25]: > 500 µM; MIC [18, 26]: > 500 µM; MIC ([19]; 24 h, read-out: MIC CK 24h): 250 µM (≈ 61.7 µg/mL); MIC ([19]; 48 h, read-out: MIC CK 48h): 500 µM (≈ 123 µg/mL) |
| O=C(Cc1ccccc1)Nc1ccccn1 [Compound 1] | > 500 µM | > 500 µM | > 500 µM | > 500 µM | 500 µM (≈ 106 µg/mL) | 500 µM (≈ 106 µg/mL) | 500 µM (≈ 106 µg/mL) | 500 µM (≈ 106 µg/mL) | > 500 µM | > 500 µM | 500 µM (≈ 106 µg/mL) | 500 µM (≈ 106 µg/mL) | 250 µg/mL (≈ 1180 µM) | > 500 µM | 62.5 µg/mL (≈ 294 µM) | > 500 µM | > 500 µM | > 500 µM | > 500 µM | > 500 µM | MIC ([5]; read-out: MIC Mtb H37Ra (μM)): 147 µM; MIC ([5]; read-out: MIC Mtb H37Ra (μg/mL)): 31.2 µg/mL; IC50 (HepG2 cell line): > 1000 µM; MIC ([12]; 48 h, read-out: MIC SA 48h): > 500 µM; MIC [13, 23]: > 500 µM; MIC [13, 24]: > 500 µM; MIC ([14]; 24 h, read-out: MIC EC 24h): > 500 µM; MIC ([14]; 48 h, read-out: MIC EC 48h): > 500 µM; MIC ([15]; 24 h, read-out: MIC ACI 24h): > 500 µM; MIC ([15]; 48 h, read-out: MIC ACI 48h): > 500 µM; MIC ([16]; 24 h, read-out: MIC CA 24h): 500 µM (≈ 106 µg/mL); MIC ([16]; 48 h, read-out: MIC CA 48h): 500 µM (≈ 106 µg/mL); MIC ([17]; 24 h, read-out: MIC MRSA 24h): > 500 µM; MIC ([17]; 48 h, read-out: MIC MRSA 48h): > 500 µM; MIC [18, 25]: > 500 µM; MIC [18, 26]: > 500 µM; MIC ([19]; 24 h, read-out: MIC CK 24h): 500 µM (≈ 106 µg/mL); MIC ([19]; 48 h, read-out: MIC CK 48h): 500 µM (≈ 106 µg/mL) |
| COc1ccccc1CC(=O)Nc1ccccn1 [Compound 4] | > 500 µM | > 500 µM | > 500 µM | > 500 µM | > 500 µM | > 500 µM | > 500 µM | > 500 µM | > 500 µM | > 500 µM | > 500 µM | > 500 µM | 250 µg/mL (≈ 1030 µM) | > 1000 µM | > 500 µg/mL | > 500 µM | > 500 µM | > 500 µM | > 500 µM | > 500 µM | MIC [5, 20]: 516 µM; MIC ([5]; read-out: MIC Mtb H37Ra): 125 µg/mL; MIC ([12]; 48 h, read-out: MIC SA 48h): > 500 µM; MIC [13, 23]: > 500 µM; MIC [13, 24]: > 500 µM; MIC ([14]; 24 h, read-out: MIC EC 24h): > 500 µM; MIC ([14]; 48 h, read-out: MIC EC 48h): > 500 µM; MIC ([15]; 24 h, read-out: MIC ACI 24h): > 500 µM; MIC ([15]; 48 h, read-out: MIC ACI 48h): > 500 µM; MIC ([16]; 24 h, read-out: MIC CA 24h): > 500 µM; MIC ([16]; 48 h, read-out: MIC CA 48h): > 500 µM; MIC ([17]; 24 h, read-out: MIC MRSA 24h): > 500 µM; MIC ([17]; 48 h, read-out: MIC MRSA 48h): > 500 µM; MIC [18, 25]: > 500 µM; MIC [18, 26]: > 500 µM; MIC ([19]; 24 h, read-out: MIC CK 24h): > 500 µM; MIC ([19]; 48 h, read-out: MIC CK 48h): > 500 µM |
